Measured values: patent US9783532B2, “Molecules having certain pesticidal utilities, and intermediates, compositions, and processes related thereto” (Dow AgroSciences LLC, priority 2013, dated 2017)

Columns and labels:
[1] = tested on: Beet Armyworm (Spodoptera exigua) ("BAW"); assay: Bioassay on beet armyworm (BAW), 128-well diet tray assay; assay type: in vivo; details: Table ABC (FB), activity rating class, read-out: BAW (Biological Results, Insect species)
Method: (§1) Certain molecules disclosed in this document were tested against BAW and CEW using procedures described in the following examples. In the reporting of the results, the “BAW & CL Rating Table” was used (See Table Section). BIOASSAYS ON BAW
Bioassays on BAW were conducted using a 128-well diet tray assay. one to five second instar BAW larvae were placed in each well (3 mL) of the diet tray that had been previously filled with 1 mL of artificial diet to which 50 μg/cm^2 of the test compound (dissolved in 50 μL of 90:10 acetone-water mixture) had been applied (to each of eight wells) and then allowed to dry. Trays were covered with a clear self-adhesive cover and held at 25° C., 14:10 light-dark for five to seven days. Percent mortality was recorded for the larvae in each well; activity in the eight wells was then averaged. The results are indicated in the table entitled “Table ABC: Biological Results” (See Table Section).

[2] = tested on: Cabbage Looper (Trichoplusia ni) ("CL"); assay: Bioassay on cabbage looper (CL), 128-well diet tray assay; assay type: in vivo; details: Table ABC (FB), activity rating class, read-out: CL (Biological Results, Insect species)
Method: as §1
Bioassays on CL were conducted using a 128-well diet tray assay. one to five second instar CL larvae were placed in each well (3 mL) of the diet tray that had been previously filled with 1 mL of artificial diet to which 50 μg/cm^2 of the test compound (dissolved in 50 μL of 90:10 acetone-water mixture) had been applied (to each of eight wells) and then allowed to dry. Trays were covered with a clear self-adhesive cover and held at 25° C., 14:10 light-dark for five to seven days. Percent mortality was recorded for the larvae in each well; activity in the eight wells was then averaged. The results are indicated in the table entitled “Table ABC: Biological Results” (See Table Section).

Row | SMILES | pest or weed control at 50 µg/cm2 [1] [%] | pest or weed control at 50 µg/cm2 [2] [%]
1 | CCc1ccccc1NC(=S)NC(=O)NCCc1ccc(-c2ncn(-c3ccc(OC(F)(F)F)cc3)n2)cc1C [FB5, 1-[(2-ethylphenyl)carbamothioyl]-3-[2-[2-methyl-4-[1-[4-(trifluoromethoxy)phenyl]-1H-1,2,4-triazol-3-yl]phenyl]ethyl]urea] | 50 to 100 | 50 to 100
2 | CCc1ccccc1N1C(=O)CS/C1=N\C(=O)NCCc1ccc(-c2ncn(-c3ccc(OC(F)(F)F)cc3)n2)cc1C [FB6, (Z)-1-(3-(2-ethylphenyl)-4-oxothiazolidin-2-ylidene)-3-(2-methyl-4-(1-(4-(trifluoromethoxy)phenyl)-1H-1,2,4-triazol-3-yl)phenethyl)urea] | 50 to 100 | 50 to 100
3 | Cc1cc(-c2ncn(-c3ccc(OC(F)(F)F)cc3)n2)ccc1CCNC(=O)/N=C1\SCC(=O)N1c1cc(Cl)ccc1C(C)C [FB7, (Z)-1-(3-(5-chloro-2-isopropylphenyl)-4-oxothiazolidin-2-ylidene)-3-(2-methyl-4-(1-(4-(trifluoromethoxy)phenyl)-1H-1,2,4-triazol-3-yl)phenethyl)urea] | 50 to 100 | 50 to 100
4 | Cc1ccc(C(C)C)c(N2C(=O)CS/C2=N\C(=O)NCCc2ccc(-c3ncn(-c4ccc(OC(F)(F)F)cc4)n3)cc2F)c1 [FB8, (Z)-1-(2-fluoro-4-(1-(4-(trifluoromethoxy)phenyl)-1H-1,2,4-triazol-3-yl)phenethyl)-3-(3-(2-isopropyl-5-methylphenyl)-4-oxothiazolidin-2-ylidene)urea] | 50 to 100 | 50 to 100
5 | COc1ccc(C(C)C)c(N2C(=O)CS/C2=N\C(=O)NCCc2ccc(-c3ncn(-c4ccc(OC(F)(F)F)cc4)n3)cc2F)c1 [FB9, (Z)-1-(2-fluoro-4-(1-(4-(trifluoromethoxy)phenyl)-1H-1,2,4-triazol-3-yl)phenethyl)-3-(3-(2-isopropyl-5-methoxyphenyl)-4-oxothiazolidin-2-ylidene)urea] | 50 to 100 | 50 to 100
6 | CCc1ccccc1-n1c(=O)n(CC)s/c1=N\C(=O)NCCc1ccc(-c2ncn(-c3ccc(OC(F)(F)F)cc3)n2)cc1 [FB10, (Z)-1-(2-ethyl-4-(2-ethylphenyl)-3-oxo-1,2,4-thiadiazolidin-5-ylidene)-3-(4-(1-(4-(trifluoromethoxy)phenyl)-1H-1,2,4-triazol-3-yl)phenethyl)urea] | 50 to 100 | 50 to 100
7 | CCn1s/c(=N\C(=O)NCCc2ccc(-c3ncn(-c4ccc(OC(F)(F)F)cc4)n3)cc2)n(-c2ccc(OC)cc2C(C)C)c1=O [FB11, (Z)-1-(2-ethyl-4-(2-isopropyl-4-methoxyphenyl)-3-oxo-1,2,4-thiadiazolidin-5-ylidene)-3-(4-(1-(4-(trifluoromethoxy)phenyl)-1H-1,2,4-triazol-3-yl)phenethyl)urea] | 0 to 50 | 50 to 100
8 | CCn1s/c(=N\C(=O)NCCc2ccc(-c3ncn(-c4ccc(OC(F)(F)F)cc4)n3)cc2)n(-c2cc(F)ccc2C(C)C)c1=O [FB12, (Z)-1-(2-ethyl-4-(5-fluoro-2-isopropylphenyl)-3-oxo-1,2,4-thiadiazolidin-5-ylidene)-3-(4-(1-(4-(trifluoromethoxy)phenyl)-1H-1,2,4-triazol-3-yl)phenethyl)urea] | 50 to 100 | 50 to 100
9 | CCn1s/c(=N\C(=O)NCCc2ccc(-c3ncn(-c4ccc(OC(F)(F)F)cc4)n3)cc2)n(-c2ccc(F)cc2C(C)C)c1=O [FB13, (Z)-1-(2-ethyl-4-(4-fluoro-2-isopropylphenyl)-3-oxo-1,2,4-thiadiazolidin-5-ylidene)-3-(4-(1-(4-(trifluoromethoxy)phenyl)-1H-1,2,4-triazol-3-yl)phenethyl)urea] | 0 to 50 | 50 to 100
10 | CCn1s/c(=N\C(=O)NCCc2ccc(-c3ncn(-c4ccc(OC(F)(F)F)cc4)n3)cc2)n(-c2ccccc2C(C)C)c1=O [FB14] | 50 to 100 | 50 to 100
